Assay results published in patent US20220289794A1, “SYNTHETIC ANTIMICROBIAL PEPTIDES” (priority 2019, published 2022).
In brackets after ≈: the same amount, converted by molar mass. Non-standard residues stand in square brackets, D forms with d. Residues, ends and D or L forms follow the SMILES beside them. Dip = N[C@H](C(=O)O)C(c1ccccc1)c1ccccc1; 2Nal = N[C@@H](Cc1ccc2ccccc2c1)C(=O)O

Legend:
[1] = system: Methicillin-resistant Staphylococcus aureus MRSA (ATCC BAA-1556); details: ATCC BAA-1556
[2] = system: S. aureus ATCC 29213; details: ATCC 29213
[3] = system: Pseudomonas aeruginosa (ATCC 27883); details: ATCC 27883
[4] = system: Escherichia coli (ATCC 25922); details: ATCC 25922
[5] = system: human red blood cells; set-up: unit not given beside the values

Compound | MIC MRSA ATCC BAA-1556 [1] | MIC S. aureus ATCC 29213 [2] | MIC P. aeruginosa ATCC 27883 [3] | MIC E. coli ATCC 25922 [4] | HC50 [5]
N=C(N)NCCC[C@H](NC(=O)[C@H](CCCNC(=N)N)NC(=O)[C@@H](N)CCCNC(=N)N)C(=O)N[C@H](C(=O)N[C@H](C(=O)N[C@H](C(=O)O)C(c1ccccc1)c1ccccc1)C(c1ccccc1)c1ccccc1)C(c1ccccc1)c1ccccc1 [IFX-002-1, NH2-Arg-Arg-Arg-Dip-Dip-Dip-OH] (H-RRR[Dip][Dip][Dip]-OH) | 3.1 µg/mL (≈ 2.68 µM) | 3.1 µg/mL (≈ 2.68 µM) | 25 µg/mL (≈ 21.6 µM) | 6.2 µg/mL (≈ 5.36 µM) | 265
N=C(N)NCCC[C@@H]1NC(=O)[C@H](CCCNC(=N)N)NC(=O)[C@H](Cc2ccc3ccccc3c2)NC(=O)[C@H](Cc2ccc3ccccc3c2)NC(=O)[C@H](Cc2ccc3ccccc3c2)NC(=O)[C@H](CCCNC(=N)N)NC1=O [IFX-003, c[Arg-Arg-Arg-NaI-NaI-NaI]] (cyclo([2Nal][2Nal][2Nal]RRR)) | 6.2 µg/mL (≈ 5.85 µM) | 3.1 µg/mL (≈ 2.92 µM) | 50 µg/mL (≈ 47.2 µM) | 25 µg/mL (≈ 23.6 µM) | 240
N=C(N)NCCC[C@H](NC(=O)[C@H](CCCNC(=N)N)NC(=O)[C@@H](N)CCCNC(=N)N)C(=O)N[C@@H](Cc1ccc2ccccc2c1)C(=O)N[C@@H](Cc1ccc2ccccc2c1)C(=O)N[C@@H](Cc1ccc2ccccc2c1)C(=O)O [IFX-003-1, NH2-Arg-Arg-Arg-NaI -NaI-NaI-OH] (H-RRR[2Nal][2Nal][2Nal]-OH) | 3.1 µg/mL (≈ 2.87 µM) | 3.1 µg/mL (≈ 2.87 µM) | 25 µg/mL (≈ 23.2 µM) | 16 µg/mL (≈ 14.8 µM) | 310
N=C(N)NCCC[C@@H]1NC(=O)[C@H](CCCNC(=N)N)NC(=O)[C@H](CCCNC(=N)N)NC(=O)[C@H](C(c2ccccc2)c2ccccc2)NC(=O)[C@H](C(c2ccccc2)c2ccccc2)NC(=O)[C@H](C(c2ccccc2)c2ccccc2)NC(=O)[C@H](C(c2ccccc2)c2ccccc2)NC(=O)[C@H](CCCNC(=N)N)NC1=O [IFX-005, c[Arg-Arg-Arg-Arg-Dip-Dip-Dip-Dip]] (cyclo([Dip][Dip][Dip][Dip]RRRR)) | 6.2 µg/mL (≈ 4.08 µM) | 3.1 µg/mL (≈ 2.04 µM) | 25 µg/mL (≈ 16.5 µM) | 25 µg/mL (≈ 16.5 µM) | 95
N=C(N)NCCC[C@H](NC(=O)[C@H](CCCNC(=N)N)NC(=O)[C@@H](N)CCCNC(=N)N)C(=O)N[C@@H](CCCNC(=N)N)C(=O)N[C@H](C(=O)N[C@H](C(=O)N[C@H](C(=O)N[C@H](C(=O)O)C(c1ccccc1)c1ccccc1)C(c1ccccc1)c1ccccc1)C(c1ccccc1)c1ccccc1)C(c1ccccc1)c1ccccc1 [IFX-005-1, NH2-Arg-Arg-Arg-Arg-Dip-Dip-Dip-Dip-OH] (H-RRRR[Dip][Dip][Dip][Dip]-OH) | 6.2 µg/mL (≈ 4.04 µM) | 6.2 µg/mL (≈ 4.04 µM) | 50 µg/mL (≈ 32.6 µM) | 50 µg/mL (≈ 32.6 µM) | 135
N=C(N)NCCC[C@@H]1NC(=O)[C@H](CCCNC(=N)N)NC(=O)[C@H](CCCNC(=N)N)NC(=O)[C@H](Cc2ccc3ccccc3c2)NC(=O)[C@H](Cc2ccc3ccccc3c2)NC(=O)[C@H](Cc2ccc3ccccc3c2)NC(=O)[C@H](Cc2ccc3ccccc3c2)NC(=O)[C@H](CCCNC(=N)N)NC1=O [IFX-006, c[Arg-Arg-Arg-Arg-NaI-NaI-NaI-NaI]] (cyclo([2Nal][2Nal][2Nal][2Nal]RRRR)) | 6.2 µg/mL (≈ 4.39 µM) | 3.1 µg/mL (≈ 2.19 µM) | 50 µg/mL (≈ 35.4 µM) | 25 µg/mL (≈ 17.7 µM) | 120
N=C(N)NCCC[C@H](NC(=O)[C@H](CCCNC(=N)N)NC(=O)[C@H](CCCNC(=N)N)NC(=O)[C@@H](N)CCCNC(=N)N)C(=O)N[C@@H](Cc1ccc2ccccc2c1)C(=O)N[C@@H](Cc1ccc2ccccc2c1)C(=O)N[C@@H](Cc1ccc2ccccc2c1)C(=O)N[C@@H](Cc1ccc2ccccc2c1)C(=O)O [IFX-006-1, NH2-Arg-Arg-Arg-Arg-NaI-NaI-NaI-NaI-OH] (H-RRRR[2Nal][2Nal][2Nal][2Nal]-OH) | 6.2 µg/mL (≈ 4.33 µM) | 3.1 µg/mL (≈ 2.17 µM) | >100 µg/mL | 50 µg/mL (≈ 34.9 µM) | 140
N=C(N)NCCC[C@H](NC(=O)[C@H](CCCNC(=N)N)NC(=O)[C@@H](N)CCCNC(=N)N)C(=O)N[C@@H](CCCNC(=N)N)C(=O)N[C@H](C(=O)N[C@H](C(=O)N[C@H](C(=O)O)C(c1ccccc1)c1ccccc1)C(c1ccccc1)c1ccccc1)C(c1ccccc1)c1ccccc1 [IFX-008-1, NH2-Arg-Arg-Arg-Arg-Dip-Dip-Dip-OH] (H-RRRR[Dip][Dip][Dip]-OH) | 3.1 µg/mL (≈ 2.36 µM) | 3.1 µg/mL (≈ 2.36 µM) | 6.2 µg/mL (≈ 4.72 µM) | 6.2 µg/mL (≈ 4.72 µM) | 210
N=C(N)NCCC[C@@H]1NC(=O)[C@H](CCCNC(=N)N)NC(=O)[C@H](CCCNC(=N)N)NC(=O)[C@H](Cc2ccc3ccccc3c2)NC(=O)[C@H](Cc2ccc3ccccc3c2)NC(=O)[C@H](Cc2ccc3ccccc3c2)NC(=O)[C@H](CCCNC(=N)N)NC1=O [IFX-009, c[Arg-Arg-Arg-Arg-NaI-NaI-NaI]] (cyclo(RRRR[2Nal][2Nal][2Nal])) | 1.5 µg/mL (≈ 1.23 µM) | 1.5 µg/mL (≈ 1.23 µM) | 12.5 µg/mL (≈ 10.3 µM) | 25 µg/mL (≈ 20.6 µM) | 205
N=C(N)NCCC[C@@H]1NC(=O)[C@H](CCCNC(=N)N)NC(=O)[C@H](Cc2c[nH]c3ccccc23)NC(=O)[C@H](C(c2ccccc2)c2ccccc2)NC(=O)[C@H](C(c2ccccc2)c2ccccc2)NC(=O)[C@H](CCCNC(=N)N)NC1=O [IFX-022, c[Arg-Arg-Arg-Dip-Dip-Trp]] (cyclo([Dip][Dip]WRRR)) | – | – | – | – | 215
N=C(N)NCCC[C@@H]1NC(=O)[C@H](CCCNC(=N)N)NC(=O)[C@H](Cc2ccc3ccccc3c2)NC(=O)[C@H](Cc2ccc3ccccc3c2)NC(=O)[C@H](Cc2c[nH]c3ccccc23)NC(=O)[C@H](CCCNC(=N)N)NC1=O [IFX-023, c[Arg-Arg-Arg-Trp-NaI-NaI]] (cyclo(RRRW[2Nal][2Nal])) | – | – | – | – | 175
N=C(N)NCCC[C@@H]1NC(=O)[C@H](CCCNC(=N)N)NC(=O)[C@H](Cc2ccc3ccccc3c2)NC(=O)[C@H](Cc2c[nH]c3ccccc23)NC(=O)[C@H](Cc2ccc3ccccc3c2)NC(=O)[C@H](CCCNC(=N)N)NC1=O [IFX-024, c[Arg-Arg-Arg-NaI-Trp-NaI]] (cyclo(RRR[2Nal]W[2Nal])) | – | – | – | – | 250
N=C(N)NCCC[C@@H]1NC(=O)[C@H](CCCNC(=N)N)NC(=O)[C@H](Cc2c[nH]c3ccccc23)NC(=O)[C@H](Cc2ccc3ccccc3c2)NC(=O)[C@H](Cc2ccc3ccccc3c2)NC(=O)[C@H](CCCNC(=N)N)NC1=O [IFX-025, c[Arg-Arg-Arg-NaI-NaI-Trp]] (cyclo(RRR[2Nal][2Nal]W)) | – | – | – | – | 190
N=C(N)NCCC[C@@H]1NC(=O)[C@H](CCCNC(=N)N)NC(=O)[C@H](CCCNC(=N)N)NC(=O)[C@H](C(c2ccccc2)c2ccccc2)NC(=O)[C@H](C(c2ccccc2)c2ccccc2)NC(=O)[C@H](Cc2c[nH]c3ccccc23)NC(=O)[C@H](CCCNC(=N)N)NC1=O [IFX-026, c[Arg-Arg-Arg-Arg-Trp-Dip-Dip]] (cyclo([Dip][Dip]RRRRW)) | – | – | – | – | 240
N=C(N)NCCC[C@@H]1NC(=O)[C@H](CCCNC(=N)N)NC(=O)[C@H](CCCNC(=N)N)NC(=O)[C@H](C(c2ccccc2)c2ccccc2)NC(=O)[C@H](Cc2c[nH]c3ccccc23)NC(=O)[C@H](C(c2ccccc2)c2ccccc2)NC(=O)[C@H](CCCNC(=N)N)NC1=O [IFX-027, c[Arg-Arg-Arg-Arg-Dip-Trp-Dip]] (cyclo(RRRR[Dip]W[Dip])) | – | – | – | – | 860
N=C(N)NCCC[C@@H]1NC(=O)[C@H](CCCNC(=N)N)NC(=O)[C@H](Cc2c[nH]c3ccccc23)NC(=O)[C@H](C(c2ccccc2)c2ccccc2)NC(=O)[C@H](C(c2ccccc2)c2ccccc2)NC(=O)[C@H](CCCNC(=N)N)NC(=O)[C@H](CCCNC(=N)N)NC1=O [IFX-028, c[Arg-Arg-Arg-Arg-Dip-Dip-Trp]] (cyclo([Dip][Dip]WRRRR)) | – | – | – | – | 370
N=C(N)NCCC[C@@H]1NC(=O)[C@H](CCCNC(=N)N)NC(=O)[C@H](CCCNC(=N)N)NC(=O)[C@H](Cc2ccc3ccccc3c2)NC(=O)[C@H](Cc2ccc3ccccc3c2)NC(=O)[C@H](Cc2c[nH]c3ccccc23)NC(=O)[C@H](CCCNC(=N)N)NC1=O [IFX-029, c[Arg-Arg-Arg-Arg-Trp-NaI-NaI]] (cyclo(RRRRW[2Nal][2Nal])) | – | – | – | – | 200
N=C(N)NCCC[C@@H]1NC(=O)[C@H](CCCNC(=N)N)NC(=O)[C@H](CCCNC(=N)N)NC(=O)[C@H](Cc2ccc3ccccc3c2)NC(=O)[C@H](Cc2c[nH]c3ccccc23)NC(=O)[C@H](Cc2ccc3ccccc3c2)NC(=O)[C@H](CCCNC(=N)N)NC1=O [IFX-030, c[Arg-Arg-Arg-Arg-NaI-Trp-NaI]] (cyclo(RRRR[2Nal]W[2Nal])) | – | – | – | – | 430
